Measurements: patent US20220220152A1, “BIVALENT ANTAGONISTS OF INHIBITORS OF APOPTOSIS PROTEINS” (Hepagene Therapeutics (HK) Limited, priority 2019, published 2022)

Legend:
XIAP-BIR3 = molecular target: T1, XIAP-BIR3 (Homo sapiens, UniProt P98170); assay: XIAP-BIR3 fluorescence polarization binding assay; details: FP, probe AbuRPFK-5FAM (SM5F) 5 nM, XIAP-BIR3 40 nM, 60 min at 25° C.
T1 construct: XIAP-BIR3; purchased Reaction Biology APT-11-374
Excerpt: (§1) IAPs are one main cause of cancer development and may result from overexpression of anti-apoptotic proteins. This protocol establishes three binding assays for […] Bir3 domain, cIAP1 and cIAP2 using FP (fluorescence polariation) technology. The fluorescence probe used is a synthetic peptide conjugated to 5-carboxyfluorescein (AbuRPFK-5FAM). The fluorescence polarization value (mP) was detected by Envision, which was used to reflect the binding degree of protein and fluorescent marker.
(§2) • a. Prepare 100 times of the final cpd concentration in appropriate tube and transfer 5 uL cpd to 45 μL 1× reaction buffer with 10% DMSO • b. The final reference cpd concentration is 10000, 3333.3, 1111.1, 370.4, 123.4, 41.2, 13.7, 4.57, 1.52, 0.51, 0.17 and 0 nM. So the 100 times of the concentration is 1000, 333.3, 111.1, 37.04, 12.34, 4.12, […], 0.15, 0.05, 0.017 and 0 μM. The final test cpds concentration is 3333.3, 1111.1, 370.4, 123.4, 41.2, 13.7, 4.57, 1.52, 0.51, 0.17, 0.057 and 0 nM. So the 100 times of the concentration is 333.3, 111.1, 37.04, 12.34, 4.12, […], 0.15, 0.05, 0.017, 0.0057 and […] • c. Add 8 μL/well each dose enzyme to 384 wen microplate (ProxiPlate-384 F Plus, 6008260) using multichannel pipette, prepared in Table 3. • d. Centrifuge at 1000 rpm • e. Add 2 μL/well cpd to 384 well microplate (ProxiPlate-384 F Plus, 6008260) using multichannel pipette, prepared in step a). • f. Centrifuge at 1000 rpm RT, 15 min. • g Start the assay by adding 10 uL/well substrate (prepared in Table 4) to the same 384 wen microplate using multichannel pipette. • h. Centrifuge at 1000 rpm. • i. Cover the assay plate and incubate for 60 min at 25° C. • j. Read on Envision 2104 for mP and plot the IC50s with mP values. • k. Data analysis: IC50s were determined based on a non-linear regression analysis of data collected.

cIAP1-BIR3 = molecular target: T2, cIAP1-BIR3 (Homo sapiens, UniProt Q13490); assay: cIAP1-BIR3 fluorescence polarization binding assay; details: FP, probe AbuRPFK-5FAM (SM5F) 5 nM, cIAP1-BIR3 15 nM, 60 min at 25° C.
T2 construct: cIAP1-BIR3; purchased Reaction Biology APT-11-370
Excerpt: as §1, §2

cIAP2-BIR3 = molecular target: T3, cIAP2-BIR3 (Homo sapiens, UniProt Q13489); assay: cIAP2-BIR3 fluorescence polarization binding assay; details: FP, probe AbuRPFK-5FAM (SM5F) 5 nM, cIAP2-BIR3 80 nM, 60 min at 25° C.
T3 construct: cIAP2-BIR3; purchased Reaction Biology APT-11-372
Excerpt: as §1, §2

T2 sequence (Q13490 253-363 limits assumed): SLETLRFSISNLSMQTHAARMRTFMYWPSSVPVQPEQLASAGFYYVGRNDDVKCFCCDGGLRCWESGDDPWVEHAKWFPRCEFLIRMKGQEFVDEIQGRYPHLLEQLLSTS
T3 sequence (Q13489 238-349 limits assumed): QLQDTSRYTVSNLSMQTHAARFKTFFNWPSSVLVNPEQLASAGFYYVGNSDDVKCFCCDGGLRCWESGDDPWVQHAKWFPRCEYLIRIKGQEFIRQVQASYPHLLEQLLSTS
T1 sequence (P98170 241-356 limits assumed): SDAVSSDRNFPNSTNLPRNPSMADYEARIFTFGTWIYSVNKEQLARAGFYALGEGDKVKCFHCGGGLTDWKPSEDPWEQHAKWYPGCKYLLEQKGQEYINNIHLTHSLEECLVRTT

Row | IC50 (XIAP-BIR3) | IC50 (cIAP1-BIR3) | IC50 (cIAP2-BIR3) | Compound
1 | 0.01 to 0.1 µM | 0.001 to 0.01 µM | 0.01 to 0.1 µM | CN[C@@H](C)C(=O)N[C@H](C(=O)N1CCC[C@H]1C(=O)N[C@@H]1CCc2c(OCCOCCOc3cccc4c3CC[C@H]4NC(=O)[C@@H]3CCCN3C(=O)[C@@H](NC(=O)[C@H](C)NC)C3CCCCC3)cccc21)C1CCCCC1 [Compound II-F, (2S)-1-[(2S)-2-cyclohexyl-2-[(2S)-2-(methylamino)propanamido]acetyl]-N-[(1R)-4-[2-(2-[[(1R)-1-[(2S)-1-[(2S)-2-cyclohexyl-2-[(2S)-2-(methylamino)propanamido]acetyl]pyrrolidine-2-amido]-2,3-dihydro-1H-inden-4-yl]oxy]ethoxy)ethoxy]-2,3-dihydro-1H-inden-1-yl]pyrrolidine-2-carboxamide]
2 | 0.01 to 0.1 µM | 0.001 to 0.01 µM | 0.01 to 0.1 µM | CN[C@@H](C)C(=O)N[C@H](C(=O)N1CCC[C@H]1C(=O)N[C@@H]1CCc2c(-c3cccc4c3CC[C@H]4NC(=O)[C@@H]3CCCN3C(=O)[C@@H](NC(=O)[C@H](C)NC)C(C)C)cccc21)C(C)C [Compound V-G, (2S)-1-[(2S)-3-methyl-2-[(2S)-2-(methylamino)propanamido]butanoyl]-N-[(1R,1′R)-1′-[(2S)-1-[(2S)-3-methyl-2-[(2S)-2-(methylamino)propanamido]butanoyl]pyrrolidine-2-amido]-1H,1′H,2H,2′H,3H,3′H-[4,4′-biinden]-1-yl]pyrrolidine-2-carboxamide]
3 | 0.001 to 0.01 µM | 0.001 to 0.01 µM | 0.001 to 0.01 µM | CN[C@@H](C)C(=O)N[C@H](C(=O)N1CCC[C@H]1C(=O)N[C@@H]1CCCc2c(-c3cccc4c3CCC[C@H]4NC(=O)[C@@H]3CCCN3C(=O)[C@@H](NC(=O)[C@H](C)NC)C3CCCCC3)cccc21)C1CCCCC1 [Compound V-N, (2S)-1-[(2S)-2-cyclohexyl-2-[(2S)-2-(methylamino)propanamido]acetyl]-N-[(1R)-5-[(5R)-5-[(2S)-1-[(2S)-2-cyclohexyl-2-[(2S)-2-(methylamino)propanamido]acetyl]pyrolidine-2-amido]-5,6,7,8-tetrahydronaphthalen-1-yl]-1,2,3,4-tetrahydronaphthalen-1-yl]pyrrolidine-2-carboxamide]
4 | 0.01 to 0.1 µM | 0.001 to 0.01 µM | 0.01 to 0.1 µM | CN[C@@H](C)C(=O)N[C@H](C(=O)N1CCC[C@H]1C(=O)N[C@@H]1CCOc2c(-c3cccc4c3OCC[C@H]4NC(=O)[C@@H]3CCCN3C(=O)[C@@H](NC(=O)[C@H](C)NC)C3CC3)cccc21)C1CC1 [Compound V-E, (2S)-1-[(2S)-2-cyclopropyl-2-[(2S)-2-(methylamino)propanamido]acetyl]-N-[(4R)8-[(4R)-4-[(2S)-1-[(2S)-2-cyclopropyl-2-[(2S)-2-(methylamino)propanamido]acetyl]pyrrolidine-2-amido]-3,4-dihydro-2H-1-benzopyran-8-yl]-3,4-dihydro-2H-1-benzopyran-4-yl]pyrrolidine-2-carboxamide]
5 | 0.01 to 0.1 µM | 0.001 to 0.01 µM | 0.01 to 0.1 µM | CN[C@@H](C)C(=O)N[C@H](C(=O)N1CCC[C@H]1C(=O)N[C@@H]1CCCc2c(OC/C=C/COc3cccc4c3CCC[C@H]4NC(=O)[C@@H]3CCCN3C(=O)[C@@H](NC(=O)[C@H](C)NC)C3CCCCC3)cccc21)C1CCCCC1 [Compound IV-A, (2S)-1-[(2S)-2-Cyclohexyl-2-[(2S)-2-(methylamino)propanamido]acetyl]-N-[(1R)-5-[[(2E)-4-[[(5R)-5-[(2S)-1-[(2S)-2-cyclohexyl-2-[(2S)-2-(methylamino)propanamido]acetyl]pyrrolidine-2-amido]-5,6,7,8-tetrahydronaphthalen-1-yl]oxy]but-2-en-1-yl]oxy]-1,2,3,4-tetrahydronaphthalen-1-yl]pyrrolidine-2-carboxamide]
6 | 0.01 to 0.1 µM | 0.001 to 0.01 µM | 0.01 to 0.1 µM | CN[C@@H](C)C(=O)N[C@H](C(=O)N1CCC[C@H]1C(=O)N[C@@H]1CCCc2c(OCC#CCOc3cccc4c3CCC[C@H]4NC(=O)[C@@H]3CCCN3C(=O)[C@@H](NC(=O)[C@H](C)NC)C3CCCCC3)cccc21)C1CCCCC1 [Compound IV-B, (S)-1-((S)-2-Cyclohexyl-2-((S)-2-(methylamino)propanamido)acetyl)-N—((R)-5-(4-((R)-5-((S)-1-((S)-2-cyclohexyl-2-((S)-2-(methylamino)propanamido)acetyl)pyrrolidine-2-carboxamido)-5,6,7,8-tetrahydronaphthalen-1-yloxy)but-2-ynyloxy)-1,2,3,4-tetrahydronaphthalen-1-yl)pyrrolidine-2-carboxamide]
7 | 0.1 to 1 µM | 0.001 to 0.01 µM | 0.01 to 0.1 µM | CN[C@@H](C)C(=O)N[C@H](C(=O)N1CCC[C@H]1C(=O)N[C@@H]1CCCc2c(-c3ccc(-c4ccc(-c5cccc6c5CCC[C@H]6NC(=O)[C@@H]5CCCN5C(=O)[C@@H](NC(=O)[C@H](C)NC)C5CCCCC5)cc4)cc3)cccc21)C1CCCCC1 [Compound III-G, (S)-1-((S)-2-cyclohexyl-2-((S)-2-(methylamino)propanamido)acetyl)-N—((R)-5-(4′-((R)-5-((S)-1-((S)-2-cyclohexyl-2-((S)-2-(methylamino)propanamido)acetyl)pyrrolidine-2-carboxamido)-5,6,7,8-tetrahydronaphthalen-1-yl)-[1,1′-biphenyl]-4-yl)-1,2,3,4-tetrahydronaphthalen-1-yl)pyrrolidine-2-carboxamide]
8 | 0.1 to 1 µM | 0.001 to 0.01 µM | 0.01 to 0.1 µM | CN[C@@H](C)C(=O)N[C@@H](C)C(=O)N1CCC[C@H]1C(=O)N[C@@H]1CCCc2c(OCCCCCOc3cccc4c3CCC[C@H]4NC(=O)[C@@H]3CCCN3C(=O)[C@H](C)NC(=O)[C@H](C)NC)cccc21 [Compound I-C, (2S)-1-[(2S)-2-[(2S)-2-(methylamino)propanamido]popanoyl]-N-[(1R)-5-[(5-[[(5R)-5-[(2S)-1-[(2S)-2-[(2S)-2-(methylamino)propanamido]propanoyl]pyrrolidine-2-amido]-5,6,7,8-tetrahydmnaphthalen-1-yl]oxy]pentyl)oxy]-1,2,3,4-tetrahydronaphthalen-1-yl]pyrrolidine-2-carboxamide]
9 | 0.001 to 0.01 µM | 0.001 to 0.01 µM | 0.01 to 0.1 µM | CN[C@@H](C)C(=O)N[C@H](C(=O)N1CCC[C@H]1C(=O)N[C@@H]1CCCc2c(-c3cccc(-c4cccc5c4CCC[C@H]5NC(=O)[C@@H]4CCCN4C(=O)[C@@H](NC(=O)[C@H](C)NC)C(C)C)c3)cccc21)C(C)C [Compound III-E, (2S)-1-[(2S)-3-methyl-2-[(2S)-2-(methylamino)propanamido]butanoyl]-N-[(1R)-5-[3-[(5R)-5-[(2S)-1-[(2S)-3-methyl-2-[(2S)-2-(methylamino)propanamido]butanoyl]pyrrolidine-2-amido]-5,6,7,8-tetrahydronaphthalen-1-yl]phenyl]-1,2,3,4-tetrahydronaphthalen-1-yl]pyrrolidine-2-carboxamide]

Row | Compound | IC50 (XIAP-BIR3) | IC50 (cIAP1-BIR3) | IC50 (cIAP2-BIR3)
10 | CN[C@@H](C)C(=O)N[C@H](C(=O)N1CCC[C@H]1C(=O)N[C@@H]1CCCc2c(OCCc3ccc(CCOc4cccc5c4CCC[C@H]5NC(=O)[C@@H]4CCCN4C(=O)[C@@H](NC(=O)[C@H](C)NC)C4CCCCC4)cc3)cccc21)C1CCCCC1 [Compound I, (2S)-1-[(2S)-2-Cyclohexyl-2-[(2S)-2-(methylamino)propanamido]acetyl]-N-[(1R)-5-[2-[4-(2-[[(5R)-5-[(2S)-1-[(2S)-2-cyclohexyl-2-[(2S)-2-(methylamino)propanamido]acetyl]pyrrolidine-2-amido]-5,6,7,8-tetrahydronaphthalen-1-yl]oxy]ethyl)phenyl]ethoxy]-1,2,3,4-tetrahydmnaphthalen-1-yl]pyrrolidine-2-carboxamide] | 0.01 to 0.1 µM | 0.001 to 0.01 µM | 0.01 to 0.1 µM
